{"source": "patent US5667809A", "about": "“Continuous fluorochemical microdispersions for the delivery of lipophilic pharmaceutical agents” (priority 1995, dated 1997)", "key": {"E. coli": {"tested_on": "E. coli", "assay": "Antibacterial activity, E. coli titer in wells with human lung epithelial cells", "format": "cell-based", "settings": "saline", "protocol": "The experimental procedure is followed:\na). Prepare a monolayer of normal human lung epithelial cells.\nb). Add 60 μL of E. coli culture into the well with lung epithelial cells on the 96-well plate.\nc). […] Incubate at 37° C. overnight.\nd). Aspirate the cultured mixture and diluted with LB media (1:2).\ne). Take 20 μL of diluted mixture and plate on an LB plate for an initial titration of E. coli. The E. coli plates were incubated at 37° C. overnight.\nf). Various dilutions were made according to the initial titer of each mixture so as to determine the accurate titer in each well. A duplicated set of tests was conducted for each treatment.\ng). The titer of E. coli was calculated by multiplying the number of colonies grown on each plate by a dilution factor for each well tested."}, "[1]": {"settings": "cited from earlier work"}, "[2]": {"settings": "intravenous, cited from earlier work"}}, "note": "Where two headings read alike, the source gives them in different places."}
{"smiles": "O=C(O)c1cn(C2CC2)c2cc(N3CCNCC3)c(F)cc2c1=O", "note": "[Ciprofloxacin]", "values": [{"measurement": "E. coli titer", "setting": "E. coli; 0.05 mg/mL", "result": 0, "unit": "colonies/ml"}, {"measurement": "E. coli titer", "setting": "E. coli; 0.1 mg/mL", "result": 0, "unit": "colonies/ml"}, {"measurement": "E. coli titer", "setting": "E. coli; 0.6 mg/mL", "result": 0, "unit": "colonies/ml"}]}
{"smiles": "Clc1cccc(Cl)c1N=C1NCCN1", "note": "[^3 H-clonidine, clonidine]", "values": [{"measurement": "Log Po/w", "setting": "[1]; octanol/water", "result": 1.4}]}
{"smiles": "c1ccc2cc3ccccc3cc2c1", "note": "[^14 C-anthracene, anthracene]", "values": [{"measurement": "Log Po/w", "setting": "[1]; octanol/water", "result": 4.5}]}
{"smiles": "CCCCC(CC)COC(=O)c1ccc(N(C)C)cc1", "note": "(stereo not drawn) [^14 C-padimate-o, padimate-o]", "values": [{"measurement": "Log Po/w", "setting": "[1]; octanol/water", "result": 6.6}]}
{"smiles": "CCCCCC(=O)OCCOCn1cnc2c(=O)[nH]c(N)nc21", "note": "[hexanoyl acyclovir]", "values": [{"measurement": "Log Po/w", "setting": "[1]; pH 7.4", "result": 0.93}, {"measurement": "Octanol/water partition coefficient Po/w", "setting": "[1]; pH 7.4", "result": 8.58}]}
{"smiles": "CC(=O)O[C@H]1C(=O)[C@@]2(C)[C@H]([C@H](OC(=O)c3ccccc3)[C@]3(O)C[C@H](OC(=O)[C@H](O)[C@@H](NC(=O)c4ccccc4)c4ccccc4)C(C)=C1C3(C)C)[C@]1(OC(C)=O)CO[C@@H]1C[C@@H]2O", "note": "[paclitaxel]", "values": [{"measurement": "systemic toxicities", "setting": "[2]", "result": "cardiac toxicity and neurotoxicity"}, {"measurement": "systemic toxicities", "setting": "[2]; listed as Taxol", "result": "high systemic toxicities"}]}
{"smiles": "CC(C)=CCN1CCC2(C)c3cc(O)ccc3CC1C2C", "note": "(stereo not drawn) [pentazocin]", "values": [{"measurement": "Octanol/water partition coefficient Po/w", "setting": "[1]; in octanol/pH 7.4 isotonic phosphate buffer at 37° C. (footnote a on the Log value)", "result": 150}]}
{"smiles": "CC(CN1c2ccccc2Sc2ccccc21)N(C)C", "note": "(stereo not drawn) [promethazine]", "values": [{"measurement": "Log Po/w", "setting": "[1]; in octanol/pH 7.4 isotonic phosphate buffer at 37° C.", "result": 3.10}]}
{"smiles": "CCCCNc1ccc(C(=O)OCCN(C)C)cc1", "note": "[tetracaine]", "values": [{"measurement": "Log Po/w", "setting": "[1]; octanol/water", "result": 1.90}]}
{"smiles": "CCCCC(=O)OCCOCn1cnc2c(=O)[nH]c(N)nc21", "note": "[valeryl acyclovir]", "values": [{"measurement": "Log Po/w", "setting": "[1]; pH 7.4", "result": 0.30}, {"measurement": "Octanol/water partition coefficient Po/w", "setting": "[1]; pH 7.4", "result": 2.01}]}
